PMC6270209, “Synthesis, Antimycobacterial Activity and In Vitro Cytotoxicity of 5-Chloro-N-phenylpyrazine-2-carboxamides” (Molecules, 2013)
In brackets after ≈: the same amount, converted by molar mass. Read-outs that look alike come from different tables or passages of the source.

Legend:
[1] = system: Chinese hamster ovary (CHO-K1) cell line; assay: cells; conditions: Cricetulus griseus, CHO-K1, 24 h, read-out: CHO-K1 IC50
HepG2 cells [2] = system: HepG2 cells
HepG2 cells [3] = assay: cells; conditions: Homo sapiens, HepG2, read-out: HepG2 IC50
[4] = system: M. avium ssp. avium Chester CNCTC My 80/72; assay: In vitro antimycobacterial activity, microdilution panel method (MIC); type: cell-based, Mycobacterium avium; conditions: for MIC: Mycobacterium avium
in vitro = conditions: human
[5] = system: M. tuberculosis H37Rv CNCTC My 331/88; assay: In vitro antimycobacterial activity, microdilution panel method (MIC); type: cell-based, Mycobacterium tuberculosis
M. avium CNCTC My 152/73 = assay: as above; type: cell-based, Mycobacterium avium; conditions: for MIC: Mycobacterium avium
[6] = system: M. kansasii Hauduroy CNCTC My 235/80; assay: as above; type: cell-based, Mycobacterium kansasii; conditions: for MIC: Mycobacterium kansasii
[7] = system: renal cell adenocarcinoma (ACHN) cell line; assay: cells; conditions: Homo sapiens, 24 h, read-out: ACHN IC50
[8] = system: renal cell adenocarcinoma (ACHN) cell line
[9] = system: Chinese hamster ovary (CHO-K1) cell line
[10] = RP-HPLC, C18, MeOH 70% / H2O 30%, 30 °C
HepG2 cells [11] = conditions: comparable HepG2 cytotoxicity assay; cited from earlier work
[12] = SI calculated for M. tbc as IC50 (HepG2)/MIC (in μM) using the lower MIC values (Table 1)
[13] = Mycobacterium tuberculosis, H37RV, M. tuberculosis H37Rv, retest with extended dilution scale up to 0.39 µg/mL, read-out: Antimycobacterial activity MIC, M. tbc (confirmation retest, value in parentheses)
[14] = Mycobacterium tuberculosis, H37RV, MIC converted to molar concentrations, read-out: M. tbc H37Rv MIC
[15] = Mycobacterium tuberculosis, H37RV, pH 5.6, M. tuberculosis H37Rv, primary test, dilution scale 100–[…], Šula's medium pH 5.6, read-out: Antimycobacterial activity MIC, M. tbc
[16] = M. kansasii Hauduroy CNCTC My 235/80
[17] = Mycobacterium tuberculosis, H37RV, read-out: M. tbc H37Rv MIC (µM), MIC converted to molar concentrations

Structure (SMILES)	IC50 [1]	Cytotoxicity SI (HepG2 cells [2]; [12])	IC50 (HepG2 cells [3])	MIC [4]	IC50 (in vitro)	MIC [5, 13]	MIC [5, 14]	MIC [5, 15]	MIC (M. avium CNCTC My 152/73)	MIC [6, 16]	IC50 [7]	MIC [5, 17]	other results
O=C(Nc1ccc(O)cc1)c1cnc(Cl)cn1 [Compound 4, 5-Chloro-N-(4-hydroxyphenyl)pyrazine-2-carboxamide]	48 ± 4 µM	5.47	69 µM	> 100 µg/mL	68.6 µM	12.5 µg/mL	12.5 µM	3.13 µg/mL	50 µg/mL (≈ 200 µM)	100 µg/mL (≈ 401 µM)	100 ± 39 µM		Activity against M. kansasii (in words) [6]: inactive
NC(=O)c1cnc(Cl)cn1 [Compound 5-Cl-PZA, 5-chloropyrazine-2-carboxamide, reference compound]	290 ± 43 µM		1590 µM	> 100 µg/mL	1590 µM			25 µg/mL	> 100 µg/mL	12.5 µg/mL (≈ 79.3 µM)	540 ± 120 µM	159 µM	Cytotoxicity SI (HepG2 cells [2]; human): 10.0
O=C(Nc1cc(Cl)ccc1O)c1cnc(Cl)cn1 [Compound 21, 5-Chloro-N-(5-chloro-2-hydroxyphenyl)pyrazine-2-carboxamide]	39 ± 2 µM	7.39	41 µM	12.5 µg/mL (≈ 44 µM)	40.6 µM	6.25 µg/mL	5.5 µM	1.56 µg/mL	12.5 µg/mL (≈ 44 µM)	12.5 µg/mL (≈ 44 µM)	51 ± 14 µM		Antimycobacterial activity MIC, M. avium [4]: 12.5 µg/mL; Antimycobacterial activity MIC, M. avium (M. avium CNCTC My 152/73): 12.5 µg/mL; Antimycobacterial activity MIC, M. kansasii [6, 16]: 12.5 µg/mL
O=C(Nc1ccc(C(=O)O)c(O)c1)c1cnc(Cl)cn1 [Compound 30, 4-(5-Chloropyrazine-2-carboxamido)-2-hydroxybenzoic acid]	502 ± 122 µM			> 100 µg/mL				3.13 µg/mL	> 100 µg/mL		371 ± 96 µM	10 µM	Cytotoxicity rating in ACHN cell line (in words) [8]: non-toxic; melting point: 240 to 244 °C (dec.); MIC ([5]; MIC converted to molar concentrations, read-out: M. tbc H37Rv MIC): 10.7 µM; Activity in comparison with PZA (times more active) ([5]; MIC for M. tbc H37Rv in µM compared): 5–10 times; Cytotoxicity rating in CHO-K1 cell line (in words) [9]: non-toxic
NNC(=O)c1ccncc1 [INH, isoniazid, reference compound]				12.5 to 25 µg/mL (≈ 91.1 to 182 µM)				0.39 to 0.78 µg/mL	3.13 to 6.25 µg/mL (≈ 22.8 to 45.6 µM)	12.5 to 25 µg/mL (≈ 91.1 to 182 µM)			Lipophilicity logk [10]: −0.743; IC50 (HepG2 cells [11]): 79000 µM
